The target in experiment [1] is T1, TIP60-KAT5 (Homo sapiens, UniProt Q92993).
T1 construct: encoding amino acid residues 2 to 461 (Uniprot Q92993-2) of human KAT5 isoform; made in house; host or cells: E. coli BL21 DE3
Description: Acetyltransferase biochemical assay (AlphaScreen), KAT5. The note with it: Table 1 (TIP60-KAT5); 0.4 μM Acetyl coenzyme A, histone H4, 10 nM enzyme. (In general: In Alpha technology, singlet oxygen from a donor bead excites a nearby acceptor bead.)

Experiment [2] deals with T2, MOZ-KAT6A (Homo sapiens, UniProt Q92794, A567V).
T2 construct: encoding amino acid residues 507 to 778 (Uniprot Q92794-1) of human KAT6A; made in house; host or cells: E. coli BL21 DE3
The experiment can be described thus: Acetyltransferase biochemical assay (AlphaScreen), KAT6A. The note with it: Table 2 (MOZ-KAT6A); 10 μM Acetyl coenzyme A, histone H3.1, 5 nM enzyme.

In experiment [3] the target is T3, HBO-KAT7 (Homo sapiens, UniProt O95251).
T3 construct: encoding amino acid residues 325 to 611 (Uniprot 095251-1) of human KAT7; made in house; host or cells: E. coli BL21 DE3 RIL
The experiment can be described thus: Acetyltransferase biochemical assay (AlphaScreen), KAT7. The note with it: Table 3 (HBO-KAT7); 0.4 μM Acetyl coenzyme A, histone H3.1, 40 nM enzyme.

Experiment [4] concerns the target T4, MOF-KAT8 (Homo sapiens, UniProt Q9H7Z6).
T4 sequence (Q9H7Z6 177-447): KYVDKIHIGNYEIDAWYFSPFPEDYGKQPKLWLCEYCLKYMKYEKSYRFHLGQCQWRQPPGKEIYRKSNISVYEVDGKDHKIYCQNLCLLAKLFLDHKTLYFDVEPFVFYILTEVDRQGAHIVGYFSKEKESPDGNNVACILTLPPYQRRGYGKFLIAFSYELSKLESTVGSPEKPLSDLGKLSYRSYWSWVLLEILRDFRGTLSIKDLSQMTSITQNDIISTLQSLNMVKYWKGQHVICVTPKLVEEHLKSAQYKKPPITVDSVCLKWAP
Description: Acetyltransferase biochemical assay (AlphaScreen), KAT8. The note with it: Table 4 (MOF-KAT8); 0.4 μM Acetyl coenzyme A, histone H4, 20 nM enzyme.

The test system of experiment [5] is histone H3K14 acetylation (HBO1 mediated) in U2OS cells. Description: Histone H3 Lysine 14 Acetylation Biomarker Assay (96 well, U2OS). The note with it: Table 6, H3K14ac, 24 hours incubation, serum free medium. It is filed as cell-based. The procedure: Compounds may be tested for their ability to inhibit acetylation of the histone H3K14 marker (which is HBO1 mediated) in the following assay:
(§1) The cell line U2OS was seeded at a density of 12,000 cells per well in 96 well optical quality tissue culture plates in RPMI medium and 10% foetal bovine serum, and allowed to adhere for 24 hours under standard culture conditions (37 degree Celsius, 5% CO2). At the end of this period the cells were washed with serum free medium. Compound dilutions prepared in DMSO were added to the serum free medium, with negative control wells reserved for treatment with DMSO only and positive controls receiving a potent inhibitor compound (e.g. Example 36 in WO2016/198507) at 10 μM concentration. After incubation for 24 hours, the cells were fixed with 3.7% formaldehyde in PBS for 20 minutes at room temperature, washed with phosphate buffer saline containing 0.1% Tween 20 and blocked with Odyssey blocking buffer (LI-COR, Lincoln, Nebr.) containing 0.1% TritonX100. Anti-H3K14ac specific antibody (Cell Signalling Technologies) in Odyssey blocking buffer containing 0.1% Tween 20 was added and incubated for 14 hours at 4 degree Celsius. After washing, a secondary antibody labelled with Alexa647 dye (LifeTechnologies) and Hoechst 33342 (1 μg/mL, SigmaAldrich) were added for 1 hour incubation. Plates were washed and read on a PerkinElmer Phenix high content imaging platform. Using a Columbus image analysis pipeline, individual nuclei were located by Hoechst 33342 stain and the acetylation level was calculated from the Alexa647-related intensity in the same area. The resulting mean intensity per cell was directly converted to percent inhibition relative to controls on the same plate and the data fitted against a four-parameter logistic model to determine the 50% inhibitory concentration (IC50).

For experiment [6], the system named is histone H2A.Z Lysine 7 acetylation (TIP60 mediated) in U2OS cells. Description: H2A.Z Lysine 7 Acetylation Biomarker Assay (96 well, U2OS). The note with it: Table 7, H2A.Z K7ac, 24 hours incubation, serum free medium. It is filed as cell-based. The procedure: To discover a global TIP60/KAT5 cellular biomarker useful for monitoring PD responses of TIP60 inhibition in vitro and in vivo, various histone modifications were assessed for TIP60 dependence through genetic (TIP60 siRNA and CRISPR/Cas9) or TIP60 pharmacological inhibition. This analysis clearly identified acetylation of the histone variant H2A.Z at Lysine 7 (H2A.ZK7ac) as a global histone mark which is TIP60-dependent in both human and mouse cells. To a lesser extent, TIP60 also acetylated lysine 4 and 11 of H2A.Z.
Compounds may be tested for their ability to inhibit the histone H2A.Z Lysine 7 acetylation biomarker (which is TIP60 mediated) in the following assay:
as §1, with “of 9,000” for “of 12,000”, “Example 146)” for “Example 36 in WO2016/198507)”, “at 20” for “at 10”, “TritonX100. Anti-H2A.Z K7ac” for “TritonX100. Anti-H3K14ac”, “antibody (Abcam)” for “antibody (Cell Signalling Technologies)”, “33342 (10 μM,” for “33342 (1 μg/mL,”

Experiment [7] addresses T2, MOZ-KAT6A. Description: Revised Acetyltransferase Biochemical Assay, KAT6A. The note with it: Table 8 (MOZ-KAT6A), 1 μM Acetyl coenzyme A.
Experiment [8] deals with T3, HBO-KAT7. Description: Revised Acetyltransferase Biochemical Assay, KAT7. The note with it: Table 9 (HBO-KAT7), 1 μM Acetyl coenzyme A.
In experiment [9] the target is T1, TIP60-KAT5. The experiment can be described thus: Revised Acetyltransferase Biochemical Assay, KAT5. The note with it: 10 nM KAT5, 1 μM AcCoA, 100 nM histone H4, 90 min.
The target in experiment [10] is T4, MOF-KAT8. The experiment can be described thus: Revised Acetyltransferase Biochemical Assay, KAT8.
The next experiment concerns the target T5, QKF-KAT6B (Homo sapiens, UniProt Q8WYB5).
T5 construct: purchased SignalChem K315-381BG
The experiment can be described thus: Revised Acetyltransferase Biochemical Assay, KAT6B. The note with it: 8 nM KAT6B, 1 μM AcCoA, 100 nM histone H3.1, 90 min. An excerpt: KAT6B was obtained from SignalChem, catalog ID: K315-381BG

The test system of experiment [11] is histone H3K23 acetylation (KATE mediated) in U2OS cells. Description: Histone H3 Lysine 23 Acetylation Biomarker Assay (U2OS). It is filed as cell-based. The note with it: 96 well, 24 hours incubation. In a few lines:
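U2OS cells were treated with compound for 24 h, then fixed and immunostained for H3K23ac with Hoechst nuclear counterstain. Per-nucleus Alexa647 intensity was quantified by high-content imaging and converted to % inhibition against DMSO and 10 μM reference-inhibitor controls. IC50 was derived from a four-parameter logistic fit.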

T2 sequence (Q92794 507-778 A567V limits assumed): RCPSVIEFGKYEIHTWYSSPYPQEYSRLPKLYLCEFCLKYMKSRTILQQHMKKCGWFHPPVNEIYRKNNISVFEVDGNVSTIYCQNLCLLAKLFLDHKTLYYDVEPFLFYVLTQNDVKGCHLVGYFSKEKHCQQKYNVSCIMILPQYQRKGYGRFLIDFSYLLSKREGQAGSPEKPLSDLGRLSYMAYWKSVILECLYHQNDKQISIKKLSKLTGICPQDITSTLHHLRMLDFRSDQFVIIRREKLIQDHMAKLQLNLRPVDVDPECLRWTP
T1 sequence (Q92993 2-461 isoform Q92993-2): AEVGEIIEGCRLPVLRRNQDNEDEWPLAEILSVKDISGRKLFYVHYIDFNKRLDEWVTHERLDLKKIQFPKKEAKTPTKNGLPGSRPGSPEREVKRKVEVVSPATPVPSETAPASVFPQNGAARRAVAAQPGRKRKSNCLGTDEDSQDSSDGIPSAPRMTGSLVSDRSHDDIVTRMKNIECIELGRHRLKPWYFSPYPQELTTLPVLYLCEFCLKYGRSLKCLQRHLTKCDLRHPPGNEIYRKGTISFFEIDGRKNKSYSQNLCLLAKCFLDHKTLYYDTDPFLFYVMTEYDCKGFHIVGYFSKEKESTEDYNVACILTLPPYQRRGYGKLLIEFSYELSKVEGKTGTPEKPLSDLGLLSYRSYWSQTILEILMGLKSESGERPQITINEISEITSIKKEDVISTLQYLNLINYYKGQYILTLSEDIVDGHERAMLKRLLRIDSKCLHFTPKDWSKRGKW
T3 sequence (O95251 with tags, fused parts or gaps): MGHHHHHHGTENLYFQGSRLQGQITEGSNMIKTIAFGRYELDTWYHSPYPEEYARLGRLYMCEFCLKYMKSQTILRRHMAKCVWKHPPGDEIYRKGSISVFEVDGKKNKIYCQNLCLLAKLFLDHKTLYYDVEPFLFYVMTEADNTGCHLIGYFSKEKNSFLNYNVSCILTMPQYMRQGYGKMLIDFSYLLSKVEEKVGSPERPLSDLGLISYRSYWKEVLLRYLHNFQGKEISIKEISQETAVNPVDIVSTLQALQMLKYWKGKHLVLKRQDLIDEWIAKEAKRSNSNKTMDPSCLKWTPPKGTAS
T5 sequence (Q8WYB5 whole entry): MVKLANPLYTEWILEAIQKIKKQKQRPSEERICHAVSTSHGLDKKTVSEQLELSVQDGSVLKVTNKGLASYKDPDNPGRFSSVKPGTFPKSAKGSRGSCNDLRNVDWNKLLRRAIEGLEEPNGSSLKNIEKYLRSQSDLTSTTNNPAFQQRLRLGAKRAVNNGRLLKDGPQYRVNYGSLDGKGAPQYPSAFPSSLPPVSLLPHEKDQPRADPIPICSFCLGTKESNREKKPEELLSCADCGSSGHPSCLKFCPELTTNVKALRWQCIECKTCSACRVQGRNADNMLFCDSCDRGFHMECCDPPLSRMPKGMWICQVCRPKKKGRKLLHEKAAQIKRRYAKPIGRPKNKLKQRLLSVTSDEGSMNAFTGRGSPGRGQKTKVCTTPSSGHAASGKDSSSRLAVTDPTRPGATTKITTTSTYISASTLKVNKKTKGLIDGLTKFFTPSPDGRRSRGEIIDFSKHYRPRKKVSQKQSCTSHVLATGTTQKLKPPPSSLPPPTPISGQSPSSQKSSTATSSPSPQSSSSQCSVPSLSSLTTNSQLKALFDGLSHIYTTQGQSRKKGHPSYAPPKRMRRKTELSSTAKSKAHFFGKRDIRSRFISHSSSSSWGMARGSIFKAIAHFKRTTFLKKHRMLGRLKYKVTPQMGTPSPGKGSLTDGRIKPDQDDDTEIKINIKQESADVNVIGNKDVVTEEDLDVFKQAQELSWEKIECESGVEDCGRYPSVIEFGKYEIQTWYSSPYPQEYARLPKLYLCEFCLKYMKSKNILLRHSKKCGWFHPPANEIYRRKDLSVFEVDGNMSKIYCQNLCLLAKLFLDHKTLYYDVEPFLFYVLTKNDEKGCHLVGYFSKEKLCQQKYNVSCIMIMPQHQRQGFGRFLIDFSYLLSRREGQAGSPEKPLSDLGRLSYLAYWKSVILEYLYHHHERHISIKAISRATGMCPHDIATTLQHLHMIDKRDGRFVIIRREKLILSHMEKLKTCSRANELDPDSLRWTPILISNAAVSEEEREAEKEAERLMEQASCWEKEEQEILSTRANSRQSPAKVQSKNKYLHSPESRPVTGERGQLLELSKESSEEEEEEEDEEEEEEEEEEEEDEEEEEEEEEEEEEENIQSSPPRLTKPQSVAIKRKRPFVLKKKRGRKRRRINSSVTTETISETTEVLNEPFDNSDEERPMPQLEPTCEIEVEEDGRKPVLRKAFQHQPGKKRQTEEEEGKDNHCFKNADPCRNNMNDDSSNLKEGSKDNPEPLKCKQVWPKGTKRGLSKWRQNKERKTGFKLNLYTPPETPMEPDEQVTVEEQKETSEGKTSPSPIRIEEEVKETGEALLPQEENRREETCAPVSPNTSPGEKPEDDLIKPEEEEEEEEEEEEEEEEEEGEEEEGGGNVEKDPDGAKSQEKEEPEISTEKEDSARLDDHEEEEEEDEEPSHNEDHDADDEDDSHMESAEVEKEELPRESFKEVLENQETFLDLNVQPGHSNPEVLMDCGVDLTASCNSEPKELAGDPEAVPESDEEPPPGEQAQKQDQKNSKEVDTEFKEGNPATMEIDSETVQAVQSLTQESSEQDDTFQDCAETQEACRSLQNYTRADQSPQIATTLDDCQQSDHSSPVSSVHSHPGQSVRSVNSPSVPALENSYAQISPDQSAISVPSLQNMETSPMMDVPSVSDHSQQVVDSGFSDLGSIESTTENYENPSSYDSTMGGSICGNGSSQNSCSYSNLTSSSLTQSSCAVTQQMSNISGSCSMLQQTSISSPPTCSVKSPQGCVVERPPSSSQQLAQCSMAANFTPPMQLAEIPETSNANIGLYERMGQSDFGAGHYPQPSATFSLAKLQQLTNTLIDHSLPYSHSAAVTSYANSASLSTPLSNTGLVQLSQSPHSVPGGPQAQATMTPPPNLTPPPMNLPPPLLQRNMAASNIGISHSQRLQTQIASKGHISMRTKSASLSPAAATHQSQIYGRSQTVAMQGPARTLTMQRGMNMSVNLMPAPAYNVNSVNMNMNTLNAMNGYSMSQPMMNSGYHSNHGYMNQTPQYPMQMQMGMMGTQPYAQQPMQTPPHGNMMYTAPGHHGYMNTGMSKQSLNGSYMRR

For orientation: IC50 means the point on the concentration scale where inhibition reaches its midpoint. With `O=C(NCC(c1ccccc1)c1ncco1)C1=Nc2ccccc2S(=O)(=O)N1` (single isomer, unassigned) [Example 137], the IC50 on TIP60-KAT5 [1] came out at 3.08 µM; on MOZ-KAT6A [2], 0.107 µM; on HBO-KAT7 [3], 0.913 µM; against MOF-KAT8 [4], 100 µM; in [5], 2.45 µM; in experiment [6] (Homo sapiens), 10 µM.
In the case of `O=C(NCC(c1ccccc1)c1ncco1)C1=Nc2ccc(Br)cc2S(=O)(=O)N1` (single isomer, unassigned) [Example 138], the IC50 turned out to be 0.0952 µM against TIP60-KAT5 [1]; 0.234 µM against HBO-KAT7 [3]; 8.07 µM against MOF-KAT8 [4]; 0.145 µM in experiment [5]; 1.46 µM in experiment [6].
As to `O=C(NCC(c1ccccc1)c1ncco1)C1=Nc2ccc(Br)cc2S(=O)(=O)N1` (single isomer, unassigned) [Example 139], the 50% inhibitory concentration (IC50) came out at 1.3 µM on TIP60-KAT5 [1]; 0.464 µM at MOZ-KAT6A [2]; 0.0615 µM against HBO-KAT7 [3]; 19.1 µM against MOF-KAT8 [4]; 0.263 µM in experiment [5]; 5.05 µM in [6]. Further, the IC50 worked out at 0.1 µM against MOZ-KAT6A [7]; 0.184 µM at HBO-KAT7 [8]; 0.707 µM on TIP60-KAT5 [9]; 75.8 µM at MOF-KAT8 [10] (read-out: IC50 (MOF-KAT8), Revised acetyltransferase biochemical assay, 20 nM KAT8, 1 μM AcCoA, 100 nM histone H4, 90 min).
For the compound `O=C(NCC(c1ccccc1)c1ncco1)C1=Nc2ccc(I)cc2S(=O)(=O)N1` (single isomer, unassigned) [Example 146, 7-iodo-N-(2-(oxazol-2-yl)-2-phenylethyl)-2H-benzo[e][1,2,4]thiadiazine-3-carboxamide 1,1-dioxide], the IC50 against TIP60-KAT5 [1] amounted to 0.0468 µM; against MOZ-KAT6A [2], 0.0259 µM; against HBO-KAT7 [3], 0.16 µM; in experiment [5] it was 0.429 µM; in experiment [6], 0.447 µM; on MOZ-KAT6A [7] it was 0.002 µM. The 50% inhibitory concentration (IC50) against HBO-KAT7 [8] came out at 0.036 µM; on TIP60-KAT5 [9] it was 0.013 µM; against QKF-KAT6B it was 0.019 µM; in experiment [11], 0.016 µM.
As to `O=C(NCC(c1ccccc1)c1ncco1)C1=Nc2ccc(I)cc2S(=O)(=O)N1` (single isomer, unassigned) [Example 147], the IC50 on TIP60-KAT5 [1] was 0.445 µM; on MOZ-KAT6A [2], 0.645 µM; on HBO-KAT7 [3], 0.167 µM; in experiment [5], 0.193 µM; in experiment [6], 1.43 µM; against MOZ-KAT6A [7] it was 0.029 µM. The IC50 at HBO-KAT7 [8] was 0.057 µM; on TIP60-KAT5 [9] it was 0.132 µM; on QKF-KAT6B, 0.311 µM; in [11] it was 0.482 µM.
As for `COC(=O)c1ccccc1CCNC(=O)C1=Nc2ccc(I)cc2S(=O)(=O)N1` [Example 12, Methyl 2-(2-(7-iodo-1,1-dioxido-2H-benzo[e][1,2,4]thiadiazine-3-carboxamido)ethyl)benzoate], the IC50 at TIP60-KAT5 [1] came out at 2.62 µM; on HBO-KAT7 [3], 5.87 µM; in experiment [6] (Homo sapiens) it was 26.8 µM.
Turning to `O=C(NCCc1ccccc1-c1ncco1)C1=Nc2ccc(I)cc2S(=O)(=O)N1` [Example 13, 7-Iodo-N-(2-(oxazol-2-yl)phenethyl)-2H-benzo[e][1,2,4]thiadiazine-3-carboxamide 1,1-dioxide], the IC50 at TIP60-KAT5 [1] is 0.727 µM; at MOZ-KAT6A [2], 0.229 µM; at HBO-KAT7 [3], 0.981 µM; in experiment [6] (Homo sapiens), 5.78 µM; against MOZ-KAT6A [7] it was 0.01 µM; on HBO-KAT7 [8], 0.128 µM. Moreover, the IC50 on TIP60-KAT5 [9] was found to be 0.111 µM; on MOF-KAT8 [10] it was 36.4 µM.
Consider `O=C(NCC(c1ccccc1)c1ncco1)C1=Nc2ccc(I)cc2S(=O)(=O)N1` (stereo not shown) [Example 41, 7-iodo-N-(2-(oxazol-2-yl)-2-phenylethyl)-2H-benzo[e][1,2,4]thiadiazine-3-carboxamide 1,1-dioxide], for which the concentration for half-maximal inhibition (IC50) was 0.0613 µM on TIP60-KAT5 [1]; 0.0179 µM on MOZ-KAT6A [2]; 0.0944 µM against HBO-KAT7 [3]; 0.0861 µM in experiment [5] (Homo sapiens, 24 h); 1 µM in [6] (Homo sapiens, 24 h); 0.005 µM against MOZ-KAT6A [7]. In addition, the IC50 against HBO-KAT7 [8] was 0.059 µM; on TIP60-KAT5 [9], 0.032 µM; against QKF-KAT6B it was 0.028 µM; in [11] (Homo sapiens, U2OS, 24 h) it was 0.035 µM.
`COc1cccc(CCNC(=O)C2=Nc3ccc(I)cc3S(=O)(=O)N2)c1` [Example 101]: the half-inhibitory concentration (IC50) on TIP60-KAT5 [1] was over 125 µM; at MOZ-KAT6A [2], 10.2 µM; on HBO-KAT7 [3], over 125 µM; in experiment [5] (Homo sapiens, 24 h), 30 µM; in experiment [6] (Homo sapiens), 30 µM.
Turning to `O=C(NCC(O)c1cccc(OCc2ccccc2)c1)C1=Nc2ccc(I)cc2S(=O)(=O)N1` (stereo not shown) [Example 122], the IC50 against TIP60-KAT5 [1] is over 125 µM; against HBO-KAT7 [3], over 125 µM; in [6] (Homo sapiens), 10 µM.

Values taken from patent US20210380548A1, “Fused [1,2,4]Thiadiazine Derivatives Which Act as KAT Inhibitors of the MYST Family” (CTxT Pty Limited, priority 2017, published 2021).
